Measurements published in US4490370A, “Naphthylglycyl cephalosporin derivatives” (priority 1983, dated 1984).
In brackets after ≈: the same amount, converted by molar mass. Counter-ions that a name gives are not always drawn. Like-named read-outs stand apart in the source and are kept apart here.

Legend:
[1] = tested on: β-lactamase (organism 265A); experiment: Stability to β-lactamases, 265A; format: biochemical; conditions: lower numbers mean greater stability
[2] = tested on: β-lactamase (organism PS185); experiment: Stability to β-lactamases, PS185; format: biochemical; conditions: lower numbers mean greater stability
[3] = tested on: β-lactamase (organism 1313G); experiment: Stability to β-lactamases, 1313G; format: biochemical; conditions: lower numbers mean greater stability
[4] = tested on: H. influ.; experiment: Agar dilution MIC, H. influenza; format: cell-based; conditions: read-out: MIC
Text: (§1) The following Tables present typical minimum inhibitory concentrations (MIC's) in μg/ml for the compounds when evaluated against the indicated microorganisms.

[5] = tested on: β-lactamase (organism 1082E); experiment: Stability to β-lactamases, 1082E; format: biochemical; conditions: lower numbers mean greater stability
[6] = tested on: B. Fragilis; experiment: Expanded spectrum MIC, B. Fragilis; format: cell-based; conditions: Bacteroides fragilis, Table III
Text: (§2) A typical and preferred compound provided by this invention is 7-(2-naphthylglycylamido)-3-methyl-3-cephem-4-carboxylic acid, the compound of Example 3. The antibacterial activity of this compound and several others of the invention has been determined in standard in vitro agar dilution assays against a variety of gram positive microorganisms. The following Tables present typical minimum inhibitory concentrations (MIC's) in μg/ml for the compounds when evaluated against the indicated microorganisms. MIC's for several known compounds are also presented for comparison.

[7] = tested on: β-lactamase (TEM); experiment: Stability to β-lactamases, TEM; format: biochemical; conditions: lower numbers mean greater stability
[8] = tested on: Staph. aureus; experiment: Agar dilution MIC, Staph. aureus; format: cell-based; conditions: Staphylococcus aureus
Text: as §1

[9] = tested on: Propionibacterum acnes; experiment: Susceptibility of anaerobes, agar-dilution, 24 hour MIC; format: cell-based
Text: as §2
(§3) Susceptibility of Anaerobic Cocci
(§4) Isolates by the Agar-Dilution
(§5) Method-24 hour MIC's (μg/ml)

[10] = tested on: Peptostreptococcus anaerobius; experiment: Susceptibility of anaerobic cocci, agar-dilution, 24 hour MIC; format: cell-based
Text: as §2, §3, §4, §5

[11] = tested on: P. magnus; experiment: as above; format: cell-based; conditions: Finegoldia magna
Text: as §2, §3, §4, §5

[12] = tested on: P. prevoti; experiment: as above; format: cell-based; conditions: isolate 1293
Text: as §2, §3, §4, §5

[13] = tested on: Peptococcus Asaccharolyticus; experiment: as above; format: cell-based; conditions: Peptoniphilus asaccharolyticus, isolate 1344
Text: as §2, §3, §4, §5

[14] = tested on: Peptococcus Constellatus; experiment: as above; format: cell-based; conditions: Streptococcus constellatus, isolate 1468
Text: as §2, §3, §4, §5

[15] = tested on: Peptostreptococcus intermedius; experiment: as above; format: cell-based
Text: as §2, §3, §4, §5

[16] = tested on: Bacteroides fragilis; experiment: Susceptibility of anaerobes, agar-dilution, 24 hour MIC; format: cell-based
[17] = tested on: Klebsiella; experiment: Agar dilution MIC, Klebsiella; format: cell-based; conditions: Klebsiella
Text: as §2

[18] = tested on: Strep. PN; experiment: Agar dilution MIC, Strep. PN; format: cell-based; conditions: Table I, strain PARK; read-out: MIC
Text: as §1

[19] = tested on: Strep. A; experiment: Agar dilution MIC, Strep. A; format: cell-based
Text: as §2

[20] = tested on: Staph. epi; experiment: Agar dilution MIC, Staph. epi; format: cell-based
Text: as §1

[21] = Table III, strain 8438, read-out: MIC
[22] = Table III, strain 9050, read-out: MIC
[23] = Table III, strain 9136, read-out: MIC
[24] = Table I, strain EPI1, read-out: MIC

For `N[C@@H](C(=O)N[C@@H]1C(=O)N2C(C(=O)O)=C(Cl)CS[C@H]12)c1ccccc1` [Cefaclor, 7-phenylglycylamido-3-chloro-3-cephem-4-carboxylic acid, reference compound], the “Stability to β-lactamases” value [1] was 138, the “Stability to β-lactamases” value [2] was 71 and the “Stability to β-lactamases” value [3] was 4605. It also gave an MIC ([4]; Table III, strain 101) of 2 µg/mL (≈ 5.44 µM), an MIC ([4]; Table III, strain 102) of 16 µg/mL (≈ 43.5 µM) and an MIC ([4]; Table III, strain 103) of 2 µg/mL (≈ 5.44 µM). The MIC ([4]; Table III, strain 104) was 1 µg/mL (≈ 2.72 µM), the MIC ([4]; Table III, strain 105) was 1 µg/mL (≈ 2.72 µM) and the MIC ([4]; Table III, strain 106) was 2 µg/mL (≈ 5.44 µM). It also gave an MIC ([4]; Table III, strain 107) of 2 µg/mL (≈ 5.44 µM), an MIC ([4]; Table III, strain 108) of 1 µg/mL (≈ 2.72 µM) and an MIC ([4]; Table III, strain 109) of 2 µg/mL (≈ 5.44 µM). For the same compound, the MIC ([4]; Table III, strain 110) was 1 µg/mL (≈ 2.72 µM), the MIC ([4]; Table III, strain 111) was 1 µg/mL (≈ 2.72 µM) and the “Stability to β-lactamases” value [5] was 65. For the same compound, the MIC ([6]; strain 180-821) was 64 µg/mL (≈ 174 µM), the MIC ([6]; strain 10668) was 64 µg/mL (≈ 174 µM) and the MIC ([6]; strain 10683) was 16 µg/mL (≈ 43.5 µM). The MIC ([6]; strain 10695) was 32 µg/mL (≈ 87 µM), the MIC ([6]; strain 10750) was > 64 µg/mL and the MIC ([6]; strain 10774) was > 64 µg/mL. The MIC ([6]; strain 10817) was 64 µg/mL (≈ 174 µM), the MIC ([6]; strain 10837) was > 64 µg/mL and the MIC ([6]; strain 107266) was 16 µg/mL (≈ 43.5 µM). The MIC ([6]; strain 107268) was 16 µg/mL (≈ 43.5 µM), the “Stability to β-lactamases” value [7] was 23 and the MIC [8, 21] was 1 µg/mL (≈ 2.72 µM). For the same compound, the MIC [8, 22] was 2 µg/mL (≈ 5.44 µM), the MIC [8, 23] was 2 µg/mL (≈ 5.44 µM) and the MIC ([8]; Table III, strain 9290, read-out: MIC) was 8 µg/mL (≈ 21.8 µM). It also gave an MIC ([8]; Table III, strain 9767, read-out: MIC) of 2 µg/mL (≈ 5.44 µM).

Compound `CO[C@@]1(NC(=O)Cc2cccs2)C(=O)N2C(C(=O)O)=C(COC(N)=O)CS[C@@H]21` [Cefoxitin, reference compound] has an MIC ([9]; isolate 44) of 2 µg/mL (≈ 4.68 µM), an MIC ([9]; isolate 79) of 8 µg/mL (≈ 18.7 µM) and an MIC ([9]; isolate 101) of 4 µg/mL (≈ 9.36 µM). The MIC ([9]; isolate 104) was 4 µg/mL (≈ 9.36 µM), the MIC ([9]; isolate 105) was 2 µg/mL (≈ 4.68 µM) and the MIC ([9]; isolate 5191) was ≤ 0.06 µg/mL. The MIC ([9]; isolate 5227) was 2 µg/mL (≈ 4.68 µM), the MIC ([9]; isolate 5228) was 4 µg/mL (≈ 9.36 µM) and the MIC ([9]; isolate 5229) was 2 µg/mL (≈ 4.68 µM). For the same compound, the MIC ([9]; isolate 5246) was 4 µg/mL (≈ 9.36 µM), the MIC ([10]; isolate 8) was 0.25 µg/mL (≈ 0.585 µM) and the MIC ([10]; isolate 52) was 2 µg/mL (≈ 4.68 µM). The MIC ([10]; isolate 1477) was 1 µg/mL (≈ 2.34 µM), the MIC ([11]; isolate 1401) was 2 µg/mL (≈ 4.68 µM) and the MIC ([11]; isolate 1477) was 0.5 µg/mL (≈ 1.17 µM). It also gave an MIC [12] of 1 µg/mL (≈ 2.34 µM), an MIC [13] of 0.25 µg/mL (≈ 0.585 µM) and an MIC [14] of 8 µg/mL (≈ 18.7 µM). For the same compound, the MIC ([15]; isolate 1264) was 1 µg/mL (≈ 2.34 µM), the MIC ([15]; isolate 1524) was 4 µg/mL (≈ 9.36 µM) and the MIC ([15]; isolate 1624) was 4 µg/mL (≈ 9.36 µM). For the same compound, the MIC ([16]; isolate 200) was 8 µg/mL (≈ 18.7 µM), the MIC ([16]; isolate 206) was 16 µg/mL (≈ 37.4 µM) and the MIC ([16]; isolate 3625) was 16 µg/mL (≈ 37.4 µM). For the same compound, the MIC ([16]; isolate 7371A) was 8 µg/mL (≈ 18.7 µM), the MIC ([16]; isolate 19671) was 16 µg/mL (≈ 37.4 µM) and the MIC ([16]; isolate 19681) was 32 µg/mL (≈ 74.9 µM).

`CC1=C(C(=O)O)N2C(=O)[C@@H](NC(=O)[C@H](N)c3ccccc3)[C@H]2SC1` [Cephalexin, reference compound] showed an MIC [17] of 4 µg/mL (≈ 11.5 µM), an MIC [18] of 2 µg/mL (≈ 5.76 µM) and an MIC ([4]; Table I, strain 251) of 8 µg/mL (≈ 23 µM). For the same compound, the MIC ([4]; Table I, strain BRUN) was 8 µg/mL (≈ 23 µM), the MIC ([4]; Table III, strain 101) was 8 µg/mL (≈ 23 µM) and the MIC ([4]; Table III, strain 102) was 16 µg/mL (≈ 46.1 µM). For the same compound, the MIC ([4]; Table III, strain 103) was 16 µg/mL (≈ 46.1 µM), the MIC ([4]; Table III, strain 104) was 16 µg/mL (≈ 46.1 µM) and the MIC ([4]; Table III, strain 105) was 4 µg/mL (≈ 11.5 µM). The MIC ([4]; Table III, strain 106) was 8 µg/mL (≈ 23 µM), the MIC ([4]; Table III, strain 107) was 8 µg/mL (≈ 23 µM) and the MIC ([4]; Table III, strain 108) was 8 µg/mL (≈ 23 µM). For the same compound, the MIC ([4]; Table III, strain 109) was 16 µg/mL (≈ 46.1 µM), the MIC ([4]; Table III, strain 110) was 8 µg/mL (≈ 23 µM) and the MIC ([4]; Table III, strain 111) was 16 µg/mL (≈ 46.1 µM). For the same compound, the MIC ([6]; strain 180-821, read-out: MIC) was 16 µg/mL (≈ 46.1 µM), the MIC ([6]; strain 10668, read-out: MIC) was > 64 µg/mL and the MIC ([6]; strain 10683, read-out: MIC) was > 64 µg/mL. The MIC ([6]; strain 10695, read-out: MIC) was 64 µg/mL (≈ 184 µM), the MIC ([6]; strain 10750, read-out: MIC) was 64 µg/mL (≈ 184 µM) and the MIC ([6]; strain 10774, read-out: MIC) was > 64 µg/mL. The MIC ([6]; strain 10817, read-out: MIC) was 16 µg/mL (≈ 46.1 µM), the MIC ([6]; strain 10837, read-out: MIC) was 16 µg/mL (≈ 46.1 µM) and the MIC ([6]; strain 107266, read-out: MIC) was 32 µg/mL (≈ 92.1 µM). The MIC ([6]; strain 107268, read-out: MIC) was 16 µg/mL (≈ 46.1 µM), the MIC [19] was 0.5 µg/mL (≈ 1.44 µM) and the MIC [20] was 8 µg/mL (≈ 23 µM). For the same compound, the MIC [20, 24] was 32 µg/mL (≈ 92.1 µM), the MIC ([8]; Table I, strain S13E) was 128 µg/mL (≈ 368 µM) and the MIC ([8]; Table III expanded spectrum, strain 8725, read-out: MIC) was 2 µg/mL (≈ 5.76 µM). The MIC [8, 21] was 1 µg/mL (≈ 2.88 µM), the MIC ([8]; Table III, strain 8787, read-out: MIC) was 1 µg/mL (≈ 2.88 µM) and the MIC [8, 22] was 2 µg/mL (≈ 5.76 µM). The MIC [8, 23] was 2 µg/mL (≈ 5.76 µM).

Work on `N[C@@H](C(=O)NC1C(=O)N2C(C(=O)O)=CCSC12)c1ccc2ccccc2c1` (stereo partly drawn) [Example 12, D-7-(2-Naphthylglycylamido)-3-cephem-4-carboxylic acid trifluoroacetate] yielded an MIC ([17]; Table I, strain X26, read-out: MIC) of 16 µg/mL, an MIC [18] of 1 µg/mL and an MIC ([4]; Table I, strain 251) of 16 µg/mL. The MIC ([4]; Table I, strain BRUN) was 64 µg/mL, the MIC ([19]; Table I, strain C203, read-out: MIC) was 0.5 µg/mL and the MIC ([20]; Table I, strain 222, read-out: MIC) was 4 µg/mL. The MIC [20, 24] was 32 µg/mL, the MIC [8] was 4 µg/mL and the MIC ([8]; Table I, strain S13E) was 64 µg/mL. It also gave an MIC ([8]; Table I, strain V41, read-out: MIC) of 64 µg/mL.
